Measurements published in patent US7163689B2, “Intravenous valproate for acute treatment of migraine headache” (priority 1999, dated 2007).
Where “and” joins values, the source holds several entries; their conditions need not be identical. Equal values may be shown once. Entries after “also recorded” stand apart in the source; their conditions may differ.

Legend:
Format in all cases: in vivo, human
[1] = system: patients with prolonged moderate to severe migraine; test: Further expanded study (N=40): Depacon vs DHE preceded by metoclopramide, prolonged moderate to severe migraine (Example 3); settings: for Headache Severity (group value, four grade rating) / Number of Patients Who Reported Nausea / Number of Patients Who Reported Phonophobia / Number of Patients Who Reported Photophobia / Responder Rate / Symptom Free patients (no headache or associated symptomatology), % / Symptom Free patients (no headache or associated symptomatology), number: N = 20 per group
From the text: This Example describes a further expanded study and analysis of the effectiveness of intravenous VPA for the treatment of acute migraine headache of significant duration. Patient data from the study described in Examples 1 and 2 have been incorporated and further analyzed in addition to new patient data. • Design and Methods. Participants (N=40) were from age 14 to 74 and were established patients of the Western New England Headache Clinic. Patients called to report the pressure of prolonged moderate to severe migraine. They had no evidence of conditions other than migraine to cause headache and were medically stable. […] Patients received a neurological and general physical examination and filled out a four grade baseline headache rating from developed by Western New England Headache Clinic (see Table 2). The patients then received either 500 mg Depacon™ over 15–30 minutes administered in 100 ccs D5W, or 1 mg DHE intramuscularly preceded by 10 mg metoclopramide intramuscularly. Headache severity and associated symptomatology were rated 1, 2, and 4 hours. Results. A total of 40 patients were randomized, 20 in the Depacon™ group and 20 in the DHE group. Table VII summarizes the number of patients in each group by severity of headache (moderate or severe), demographic data and medication assignment.

[2] = system: patients with moderate to severe migraine headaches of duration of 24 to 96 hrs; test: Pilot study: IV valproate vs IM DHE with metoclopramide for abortive treatment of acute migraine headache (Example 1); settings: individual patient, grade 0-3; 24-h; sodium
[3] = system: patients with moderate to severe migraine headaches of duration of 24 to 96 hrs; test: as above; settings: for % Headache Relief: 5 patients per group; for Headache Severity / Nausea/vomiting / Phonophobia / Photophobia: individual patient; for Headache Severity: grade 0-3; for Nausea/vomiting / Phonophobia / Photophobia: presence
From the text: This Example describes the results of a pilot study using intravenous valproate for abortive treatment of acute migraine headache. • Methods. Patients with established diagnosis of migraine with and without aura were considered for randomization to intravenous (“IV”) valproate (“VPA”) or intramuscular (“IM”) dihydroergotamine (“DHE”) with metoclopramide, also referred to herein as […]®, for patients with moderate to severe migraine headaches of duration of 24 to 96 hrs. Patients received intravenous infusion of 500 mgs of valproate over 30 mins or 1 mg DHE with 10 mgs metoclopramide IM. Headache severity, presence of nausea, phonophobia and photophobia were rated at baseline, 1 hr, 2 hrs, and 4 hrs. Table I and II. There were 5 patients in each group. • Results. Of the 5 patients receiving valproate, 4 of the 5 had response of their headaches from moderate or severe to none or mild at 1 hr, 2 hrs, and 4 hrs. Of the 5 patients receiving DHE, 3 of the 5 patients had headache response to moderate or severe to mild or none at 1 hr, 2 hrs, and 4 hrs. Table III. […] In the DHE group, 2 of 5 had nausea at baseline, and 1 had nausea at 1 hr, 2 hrs, and 4 hrs. Table IVa. […] In the DHE group, 3 of 5 had relief of photophobia at 1 hr, 4 of 5 had relief at 2 hrs and 4 hrs. […] In the DHE group, 2 of 5 had relief of phonophobia at 1 hr, and 3 of 5 had relief of phonophobia at 2 hrs and 4 hrs. Table IVb. • Conclusions. Intravenous valproate is an alternative therapy for abortive treatment of moderate to severe prolonged acute migraine headache. Anti-convulsant mechanisms may be relevant to treatment of headache symptomatology.

SMILES: CCCC(CCC)C(=O)[O-].[Na+] [Depacon, valproate sodium]
- adverse events ([1]; 20 patients receiving 500 mg Depacon given during 15 to 30 minutes infusion, sodium): remarkably free of adverse event; also recorded: no adverse events
- % of Patients Who Reported Nausea ([1]; 1 hour): 53%
- % of Patients Who Reported Phonophobia ([1]; 1 hour): 74%
- % of Patients Who Reported Photophobia ([1]; 1 hour): 70%
- % of Patients Who Reported Nausea ([1]; 2 hours): 53%
- % of Patients Who Reported Phonophobia ([1]; 2 hours): 58%
- % of Patients Who Reported Photophobia ([1]; 2 hours): 50%
- % of Patients Who Reported Nausea ([1]; 4 hours): 47%
- % of Patients Who Reported Phonophobia ([1]; 4 hours): 53%
- % of Patients Who Reported Photophobia ([1]; 4 hours): 45%
- % of Patients Who Reported Nausea ([1]; Baseline): 75%
- % of Patients Who Reported Phonophobia ([1]; Baseline): 95%
- % of Patients Who Reported Photophobia ([1]; Baseline): 100%
- Headache Severity (group value, four grade rating) ([1]; 1 hour): 1.8
- Number of Patients Who Reported Nausea ([1]; 1 hour): 8
- Number of Patients Who Reported Phonophobia ([1]; 1 hour): 14
- Number of Patients Who Reported Photophobia ([1]; 1 hour): 14
- Responder Rate ([1]; 1 hour): 50%
- Headache Severity (group value, four grade rating) ([1]; 2 hours): 1.5
- Number of Patients Who Reported Nausea ([1]; 2 hours): 8
- Number of Patients Who Reported Phonophobia ([1]; 2 hours): 11
- Number of Patients Who Reported Photophobia ([1]; 2 hours): 10
- Responder Rate ([1]; 2 hours): 60%
- Headache Severity (group value, four grade rating) ([1]; 4 hours): 1.4
- Number of Patients Who Reported Nausea ([1]; 4 hours): 7
- Number of Patients Who Reported Phonophobia ([1]; 4 hours): 10
- Number of Patients Who Reported Photophobia ([1]; 4 hours): 9
- Responder Rate ([1]; 4 hours): 60%
- Headache Severity (group value, four grade rating) ([1]; Baseline): 2.7
- Number of Patients Who Reported Nausea ([1]; Baseline): 15
- Number of Patients Who Reported Phonophobia ([1]; Baseline): 19
- Number of Patients Who Reported Photophobia ([1]; Baseline): 20
- Symptom Free patients (no headache or associated symptomatology), % ([1]; at 1 hour): 10%
- Symptom Free patients (no headache or associated symptomatology), number ([1]; at 1 hour): 2
- Symptom Free patients (no headache or associated symptomatology), % ([1]; at 2 hours): 15%
- Symptom Free patients (no headache or associated symptomatology), number ([1]; at 2 hours): 3
- Symptom Free patients (no headache or associated symptomatology), % ([1]; at 4 hours): 25%
- Symptom Free patients (no headache or associated symptomatology), number ([1]; at 4 hours): 5
- response of associated symptomatology compared with the DHE group ([1]; baseline, 1, 2 and 4 hours, P>0.05): responded somewhat better, although not statistically significantly
- Headache Severity [2]: 1 and 2 (2×) and 3 and 0
- % experiencing Nausea ([3]; 0-h (baseline)): 80%
- % experiencing Photophobia ([3]; 0-h (baseline)): 100%
- % experiencing phonphobia ([3]; 0-h (baseline)): 80%
- % experiencing Nausea ([3]; 1-h): 20%
- % experiencing Photophobia ([3]; 1-h): 20%
- % experiencing phonphobia ([3]; 1-h): 20%
- % experiencing Nausea ([3]; 2-h): 20%
- % experiencing Photophobia ([3]; 2-h): 20%
- % experiencing phonphobia ([3]; 2-h): 20%
- % experiencing Nausea ([3]; 4-h): 0%
- % experiencing Photophobia ([3]; 4-h): 0%
- % experiencing phonphobia ([3]; 4-h): 0%
- % Headache Relief ([3]; 1-h): 60%
- % Headache Relief ([3]; 2-h): 100%
- % Headache Relief ([3]; 4-h): 80%
- % Headache Relief ([3]; 24-h): 40%
- % experiencing Nausea ([3]; 24-h): 40%
- % experiencing Photophobia ([3]; 24-h): 40%
- % experiencing phonphobia ([3]; 24-h): 40%
- Headache Severity ([3]; 0-h (baseline), Depacon IV 500 mg or DHE 1 mg + Reglan 10 mg, sodium): 3 (3×) and 2 (2×)
- Headache Severity ([3]; 1-h, sodium): 1 (2×) and 0 (2×) and 2
- Headache Severity ([3]; 2-h, sodium): 1 (4×) and 0
- Headache Severity ([3]; 4-h, sodium): 0 (3×) and 1 and 2
- Nausea/vomiting ([3]; 0-h (baseline), sodium): 0
- Phonophobia ([3]; 0-h (baseline), sodium): 0
- Nausea/vomiting ([3]; 1-h, sodium): 0
- Phonophobia ([3]; 1-h, sodium): 0
- Photophobia ([3]; 1-h, sodium): 0
- Nausea/vomiting ([3]; 2-h, sodium): 0
- Phonophobia ([3]; 2-h, sodium): 0
- Photophobia ([3]; 2-h, sodium): 0
- Nausea/vomiting ([3]; 4-h): 0
- Phonophobia ([3]; 4-h): 0
- Photophobia ([3]; 4-h): 0
- Nausea/vomiting ([3]; 24-h, sodium): 0
- Phonophobia ([3]; 24-h, sodium): 0
- Photophobia ([3]; 24-h, sodium): 0
- patients who had nausea ([3]; of 5 patients, 1 hr): 1
- patients who had relief of phonophobia ([3]; of 5 patients, 1 hr): 4 of 5
- patients who had relief of photophobia ([3]; of 5 patients, 1 hr): 4 of 5
- patients with response of headache from moderate or severe to none or mild ([3]; of 5 patients, 1 hr): 4 of the 5
- patients who had nausea ([3]; of 5 patients, 2 hrs): 1
- patients who had relief of phonophobia ([3]; of 5 patients, 2 hrs): 4 of 5
- patients who had relief of photophobia ([3]; of 5 patients, 2 hrs): 4 of 5
- patients with response of headache from moderate or severe to none or mild ([3]; of 5 patients, 2 hrs): 4 of the 5
- patients who had nausea ([3]; of 5 patients, 4 hrs): all had relief of nausea
- patients who had relief of phonophobia ([3]; of 5 patients, 4 hrs): all had relief
- patients who had relief of photophobia ([3]; of 5 patients, 4 hrs): all had relief
- patients with response of headache from moderate or severe to none or mild ([3]; of 5 patients, 4 hrs): 4 of the 5
- patients who had nausea ([3]; of 5 patients, baseline): 4 of 5
- patients who had photophobia ([3]; of 5 patients, baseline): all had photophobia
